Our source for the melting point values is a melting point compilation (Tetko et al.; mined from patent text by program, amines drawn as free bases though some values may be those of a salt).

Each structure is given as a SMILES string.

A word on the melting point: it is the temperature of the solid-liquid transition. For `CCCCCCC(=O)NNC(=O)OC`, the melting point is 74 to 75 °C.
In the case of `CCOC(=O)COc1ccccc1C(O)(CC)c1cccc(Cl)c1` (stereo not given) it was 83 to 84 °C; in that of `CN1CCN(Cc2nc(C(N)=O)nn2-c2ccc(Cl)cc2C(=O)c2ccccc2Cl)CC1`, 167 to 169 °C; in that of `N#Cc1cccc(C(=O)Nc2cccc(-c3cccc4c3/C(=C/c3ccc[nH]3)C(=O)N4)c2)c1`, 250 to 251 °C.
In the case of `CCCC(=O)C=CC(=O)O` it was 100 to 102 °C.
`COC(=O)/C=C/COc1cc(-n2ncc(C(F)(F)F)c(C)c2=O)c(F)cc1Cl` gave a melting point of 153 °C.
`CC(=O)NCCn1nnnc1S`: the melting point lay in the range of 138 to 140 °C.
In the case of `Nc1ccc(-c2cc3ccccn3c2C(=O)CCC(=O)O)cc1` it was 86 to 88 °C; in that of `CCCCNc1c(C(=O)OCC)c(C)nc2nnsc12`, 57 to 58 °C; in that of `Oc1cnn(-c2ccc(Cl)cc2Cl)c1`, 148 to 149 °C.
As for `O=C(O)[C@@H]1CN(C(=O)OCc2ccccc2)CCN1C(=O)N1c2ccccc2CCc2ccccc21`, the figure is 185 °C; as for `COCCOc1cc2ncnc(NC3=CC(=O)C(Br)=CC3=O)c2cc1OC`, 200 to 210 °C; as for `O=C(NC1CCC(OCc2ccccc2)CC1)NC12CC3CC(CC(C3)C1)C2` (stereo not given), 181 °C.
In the case of `CC(=O)Oc1ccc(-c2ccc(C(C)=O)cc2)cc1Br` it was 100 °C.
Consider `CCOC(=O)c1cnn(-c2cc(Cl)cc(Cl)c2)c1C(N)=O`, for which the melting point was 164 to 166 °C.
As for `CCCCc1nnc(-c2ccncc2)n1Cc1ccc(N)cc1`, the figure is 63.5 to 64.5 °C.
In the case of `C=CCc1cc(C(=O)OCC)ccc1NC(C)=O` it was 127 to 128 °C; in that of `O=C(O)C=CC(=O)NNC(=O)N1Cc2ccccc2Oc2ccc(Cl)cc21`, 171 to 172 °C.
With `CCOC(=O)c1cnc2c(-c3cccc(Cl)c3)cnn2c1`, the melting point worked out at 136 °C.
As for `O=C1OCc2c1cc1ccc(Cl)cc1c2-c1ccc(Cl)cc1`, the figure is 205 to 207 °C.
As for `NC(=O)Cn1cc(C(=O)c2ccn3c2CSC3c2cccnc2)c2ccc(-c3ccc(F)cc3)cc21` (stereo not given), the figure is 215 to 225 °C; as for `O=C(c1ccccc1)c1ccc2sc(NCCO)nc2c1`, 159 °C.
In the case of `NC(=O)c1nc(-c2cccc(O)c2)nc2c1[nH]c(=O)n2-c1ccccc1-c1ccccc1` it was 293 to 296 °C; in that of `CCc1nc2c(N)nc3ccccc3c2n1CCCS(C)(=O)=O`, more than 250 °C; in that of `COc1cccc(C(=O)c2cccc(Cl)c2)c1`, 52 °C.
As for `Cc1ccc2c(O)cc(=O)oc2c1C`, the melting point lay within 186 to 190 °C.
As for `CCS(=O)(=O)Nc1ccc([N+](=O)[O-])cc1SC1CCCCC1`, the figure is 119 to 120 °C; as for `CCOC(=O)c1sc(I)nc1-c1ccccc1`, 104 to 106 °C.
In the case of `COc1ccc(S(=O)(=O)N2CCc3cccc(-c4ccc(CN(C)C)cc4)c32)cc1` it was 165 to 166 °C; in that of `CCCCCCCCCCCCCCCCOc1ccc(S(N)(=O)=O)cc1N`, 103 to 105 °C.
In the case of `O=C(CC(NC(=O)Cc1ccccc1)c1ccccc1)Nc1n[nH]c(=S)s1` (stereo not given) it was 249 to 250 °C.
As to `O=C(O)c1ccccc1NCCNc1ccccc1C(=O)O`, the melting point stood at 248 °C.
As for `CC(C)=CCCC(C)=CCOc1ccc(OCC=C(C)CCC=C(C)C)c(C(=O)NCCc2ccncc2)c1`, the figure is 59.1 to 60.6 °C; as for `COc1ccc2c(c1)CC=C(C=Cc1ccc(C#N)cc1)O2`, 224 to 226 °C; as for `COc1cc(OC)c(-c2nc(NC(=O)c3cc4cc(C)cc(C)c4n3CC(=O)O)sc2CCC2CCCCC2)cc1Br`, 221 to 222 °C.
As for `CS(=O)(=O)CCc1nc2nc[nH]c2c2nc(-c3ccc(-c4ccccc4)cc3)nn12`, the melting point was determined as 280 °C.
Compound `CCN(CC)CCNC(=O)N1CCCC(S(=O)(=O)c2ccc(F)cc2)C1` (stereo not given) showed a melting point of 137 to 138 °C.
`CCCS(=O)(=O)Oc1c(C(=O)c2ccc3c(c2C)C(N(C)C(=O)OC)CCS3(=O)=O)cnn1CC` (stereo not given) returned a melting point of 156 to 159 °C.
Take `O=[N+]([O-])c1c(Cl)cccc1-c1nc2ccccc2[nH]1`: the melting point is more than 260 °C.
In the case of `CC(C=O)=CC=CC(C)=CC=CC=C(C)C1OCC(C)(C)CO1` it was 140 °C; in that of `COCOC1CCC2(C)C(=CCC3C4CCC(=O)C4(C)CCC32)C1` (stereo not given), 130 to 132 °C.
As for `CON=Cc1ccc2c(c1)ncn2-c1cccc(-c2ccoc2)c1`, the figure is 147 to 148 °C; as for `Cc1noc(NS(=O)(=O)c2ccccc2-c2ccc(-c3ncco3)cc2CN2OCC(C)(C)C2=O)c1C`, 95 to 100 °C.
As for `CCCCCCCCCCCC#Cc1ccc(C=CC(=O)O)cc1`, the figure is 156 to 157 °C; as for `Cc1c(CC#N)cc(C(C)(C)C)c(O)c1C`, 126 to 128 °C; as for `CCOC(=O)[C@@H](CCC(=O)N1c2ccccc2C[C@H]1C(=O)OCC)NC(=O)[C@@H](N)CCCCNSc1ncccc1[N+](=O)[O-]`, 95 to 102 °C.
For the compound `O=C(c1cc(Cl)ccc1O)c1cc(Cl)ccc1O`, the melting point is 154 °C.
`Cc1[nH]c(=O)n(-c2cc(C(=O)OC(C)C)c(Cl)cc2F)c(=O)c1C#N` showed a melting point of 189 to 193 °C.
Turning to `CCOC(=O)Nc1cc(C(=O)N(C)OC)c(Cl)cc1F`, the melting point is 121 °C.
As for `CC1=C(CC2=NCCN2)CCc2ccccc21`, the figure is 223 to 224 °C; as for `COc1ccc(S(=O)O)c(OC)c1`, 89 to 91 °C.
In the case of `Cn1cnc2c3ncc(Cl)cc3ccc21` it was 188 to 189 °C.
As for `O=C(O)CCC(Cc1ccccc1Cl)(C(=O)C=Cc1c(Cl)cccc1Cl)c1ccccc1` (stereo not given), the figure is 140 to 143 °C.
Regarding `O=C(O)CC1CCCc2c1n(Cc1ccc(Cl)cc1Cl)c1c(F)cc(F)cc21` (stereo not given), the melting point fell in the range of 160 to 161 °C.
In the case of `O=C(O)c1cc([N+](=O)[O-])cc2c1Nc1ccc(CCCc3ccc(Cl)c(Cl)c3)cc1O2` it was 90 to 93 °C; in that of `N#CC(Nc1ccc(SSc2ccc(NC(C#N)c3ccc(S(N)(=O)=O)cc3)cc2)cc1)c1ccc(S(N)(=O)=O)cc1` (stereo not given), 251 to 255 °C; in that of `CC(=O)OCCCS(=O)(=O)c1ccc(S(N)(=O)=O)s1`, 103 to 104 °C.
In the case of `O=C(O)C1(CC2CCCC2)CC1` it was 42 to 45 °C; in that of `COc1cc(N)c(Cl)cc1C(=O)NCC1CCN(CCCCCC(=O)c2ccc(F)cc2F)CC1`, 115 to 117 °C.
For `Cn1c(C(F)(F)F)cc(=O)n(-c2cc(F)c([N+](=O)[O-])cc2F)c1=O`, the melting point was 150 °C.
`CCOC(=O)COc1cc2c(c(Cl)c1Cl)C(=O)C(C)(C(C)C)C2Br` (stereo not given): the melting point is 83 to 85 °C.
In the case of `O=C1OC(CI)CN1c1cc(F)c(-c2cccnc2)c(F)c1` (stereo not given), the melting point fell in the range of 133 to 134 °C.
As to `COc1cc2c(cc1OC)C(CNC(=O)N(C)O)CC2` (stereo not given), the melting point is 120 to 121 °C.
For `CC(C)COC(=O)C1(F)C(=O)NC(=O)NC1O/N=C\c1ccco1` (stereo not given), the melting point was in the range of 159 to 160 °C.
As for `CC(CN(C(=O)c1ccco1)c1c(C)cccc1C)=NO`, the figure is 155 to 156 °C.
In the case of `COC(=O)C(=O)c1ccc(OCCOCCOc2ccccc2)cc1` it was 75 to 76 °C; in that of `C[C@]12CC[C@H](O)CC1=CCC1C2CC[C@@]2(C)C1CC[C@@H]2c1cn(Cc2ccccc2)nn1` (stereo not given in full), 286 to 287 °C; in that of `CNC(=O)c1ccc(N2CCN(Cc3cnc4c(c3)[nH]c(=O)n3cccc43)CC2)c(Cl)c1`, 260 to 266 °C.
`Cc1cccc(-c2nc(N)sc2-c2ccnc(-c3ccc(OCCN4CCCC4)cc3)c2)n1` returned a melting point of 176 to 178 °C.
In the case of `Clc1ccc(NC2CCCCC2)nn1` it was 161 to 163 °C; in that of `COc1ccc(C(=O)NCc2ccc(OCCN(C)C)cc2)cc1OC`, 111 to 112 °C; in that of `Cc1cc(OC/C=C/c2ccccc2)c(C)c(C)c1NC=O`, 197 to 199 °C.
The compound `ON=C(c1ccccc1)c1ccc(OCCCCOc2ccc(C(=NO)c3ccccc3)cc2)cc1` came in with a melting point of 154 to 156 °C.
As for `O=C(Nc1ccccc1)c1cccc(-c2ccc(OCC(O)CCc3cccnc3)cc2)c1` (stereo not given), the figure is 90 to 93 °C; as for `c1ccc2c(CCCCN3CCc4c(sc5ccccc45)C3)c[nH]c2c1`, 113 to 115 °C; as for `CC#CC(=O)Nc1ccc2ncnc(Nc3cccc(N(C)C)c3)c2c1`, 252 to 254 °C.
In the case of `COc1ccc(COC(=O)Nc2cc(-n3cccn3)nc(-c3ccco3)n2)cc1OC` it was 148 °C.
As for `CCOC(=O)c1nc(-c2ccc(OC)c(OC)c2)cs1`, the figure is 100 to 102 °C; as for `CCCc1cc(OCC)c2c(c1OC)S(=O)(=O)N(CCl)C2=O`, 131 to 133 °C; as for `Cn1nc(N)c2sc3ccccc3c21`, 177 to 178 °C.
Consider `COc1ccc(C(=O)c2cc(F)ccc2F)c(O)c1Cl`, for which the melting point lay within 178 to 180 °C.
In the case of `COc1cc2c(cc1OC)CN(CCCOc1ccc(NC(=O)c3cccc4c(=O)c5ccccc5sc34)cc1)CC2` it was 210 °C; in that of `O=C(CC(=O)C(F)(F)F)c1ccc(OCc2ccccc2)cc1`, 220 to 224 °C; in that of `CCOC(=O)c1[nH]c2ccc(C)cc2c1Sc1ccc(Cl)cc1`, 158 to 160 °C.
In the case of `CCOC(=O)c1csc(NC(c2ccccc2)(c2ccccc2)c2ccccc2)n1` it was 140 to 141 °C; in that of `CCC(Oc1cnc(Cl)c(Cl)c1)C(=O)O` (stereo not given), 117 to 118 °C.
Compound `CSc1onc(-c2ccccc2)c1-c1ccc(S(N)(=O)=O)cc1` registered a melting point of 135 to 137 °C.
As for `Cc1cn2ccc(NC(=O)C(F)(F)F)c(I)c2n1`, the figure is 168 °C; as for `Nc1cc2c(c(C(=O)O)c1)CCCC2`, 178 to 180 °C.
In the case of `COc1ccccc1OCC(O)CN1CCC(N2CCNC2=O)CC1` (stereo not given), the melting point turned out to be 138 °C.
